In patent US8343475B2, “Small cationic antimicrobial peptides” (priority 2006, dated 2013):
In brackets after ≈: the same amount, converted by molar mass. Like-named read-outs stand apart in the source and are kept apart here. Residues, ends and D or L forms follow the SMILES beside them.

Assays:
Format in all cases: cell-based
[1] = system: Pseudomonas aeruginosa PAO1 strain H103
Description: The biological activity of the peptides can be determined by standard methods known to those of skill in the art, such as “minimal inhibitory concentration (MIC)” assay described in the present examples, whereby the lowest concentration at which no change in OD is observed for a given period of time is recorded as MIC.
(§1) Minimal inhibitory concentration (MIC) determination. The MIC of the peptides were measured using a modified broth microdilution method in Mueller Hinton (MH) medium (Wu M, Hancock R E W. 1999. Interaction of the cyclic antimicrobial cationic peptide bactenecin with the outer and cytoplasmic membrane. J Biol Chem 274, 29-35). Briefly, the peptides were dissolved and stored in glass vials. The assay was performed in sterile 96-well polypropylene microtitre plates were used. Serial dilutions of the peptides to be assayed were performed in 0.01% acetic acid (Fisher) containing 0.2% bovine serum albumin (Boehringer Mannheim GmbH) at 10× the desired final concentration. Ten microlitres of the 10× peptides were added to each well of a 96-well polypropylene plate containing 90 μl of MH media per well. Bacteria were added to the plate from an overnight culture at 2-7×10^5 colony forming units/ml and incubated over night at 37° C. The MIC was taken as the concentration at which no growth was observed.
(§2) Strains. For the killing assay a mini-Tn5-lux mutant in Pseudomonas aeruginosa H103 was used. The strain is called H1001 and contains a fliC::luxCDABE transcriptional fusion resulting in constitutive expression of luciferase. The bacterial strains used for the antimicrobial activity assays included Escherichia coli UB1005 (F-, nalA37, metB1), a wild-type Salmonella enterica ssp. typhimurium (S. typhimurium), wild-type Pseudomonas aeruginosa PAO1 strain H103, Enterococcus faecalis ATCC29212, Staphylococcus aureus ATCC25923, and a clinical isolate of Staphylococcus epidermidis obtained from Dr. D. Speert (Department of Medicine, University of British Columbia). Antifungal activity was tested using a lab isolate of Candida albicans obtained from Dr. B. Dill (Department of Microbiology and Immunology, University of British Columbia).

[2] = system: lab isolate of Candida albicans
Description: as §1, §2

[3] = system: wild-type Salmonella enterica ssp. typhimurium
Description: as §1, §2

[4] = system: clinical isolate of Staphylococcus epidermidis
Description: as §1, §2

Escherichia coli UB1005 = system: Escherichia coli UB1005
Description: as §1, §2

[5] = system: Staphylococcus aureus ATCC25923
Description: as §1, §2

[6] = system: Enterococcus faecalis ATCC29212
Description: as §1, §2

[7] = indolicidin substitution variants (Table 4)

Structure (SMILES)	MIC P. aerug ([1]; PAO1) [µg/mL]	MIC C. albicans ([2]; lab isolate of) [µg/mL]	MIC S. typhi [3] [µg/mL]	MIC S. epi. ([4]; clinical isolate of) [µg/mL]	MIC E. coli (Escherichia coli UB1005; [7]) [µg/mL]	MIC S. aureus ([5]; ATCC25923) [µg/mL]	MIC E. faecalis ([6]; ATCC29212) [µg/mL]	MIC E. coli (Escherichia coli UB1005; UB1005) [µg/mL]	MIC P. aerug [1, 7] [µg/mL]	MIC C. albicans [2, 7] [µg/mL]	MIC S. epi. [4, 7] [µg/mL]	MIC S. aureus [5, 7] [µg/mL]	MIC E. faecalis [6, 7] [µg/mL]
CC[C@H](C)[C@H](N)C(=O)N[C@@H](CC(C)C)C(=O)N1CCC[C@H]1C(=O)N[C@@H](Cc1c[nH]c2ccccc12)C(=O)N[C@@H](CCCCN)C(=O)N[C@@H](CCCCN)C(=O)N1CCC[C@H]1C(=O)N[C@@H](Cc1c[nH]c2ccccc12)C(=O)N[C@@H](Cc1c[nH]c2ccccc12)C(=O)N1CCC[C@H]1C(=O)N[C@@H](Cc1c[nH]c2ccccc12)C(=O)N[C@@H](CCCNC(=N)N)C(=O)N[C@@H](CCCNC(=N)N)C(N)=O [HH113, ILPWKKPWWPWRR] (H-ILPWKKPWWPWRR-NH2; N-terminus assumed)	31 (≈ 16.8 µM)	62 (≈ 33.5 µM)	62 (≈ 33.5 µM)	8 (≈ 4.33 µM)	31 (≈ 16.8 µM)	31 (≈ 16.8 µM)	125 (≈ 67.6 µM)						
CC[C@H](C)[C@H](NC(=O)[C@H](CCCNC(=N)N)NC(=O)[C@H](Cc1ccccc1)NC(=O)[C@H](CCCNC(=N)N)NC(=O)[C@@H](N)C(C)C)C(=O)N[C@@H](CCCNC(=N)N)C(=O)N[C@H](C(=O)N[C@@H](C)C(=O)N[C@H](C(=O)N[C@H](C(=O)N[C@@H](CCCNC(=N)N)C(=O)N[C@@H](C)C(N)=O)[C@@H](C)CC)C(C)C)C(C)C [HH3, VRFRIRVAVIRA] (H-VRFRIRVAVIRA-NH2)	6 (≈ 4.12 µM)	6 (≈ 4.12 µM)	6 (≈ 4.12 µM)	1.6 (≈ 1.1 µM)		12 (≈ 8.25 µM)	25 (≈ 17.2 µM)	1.6 (≈ 1.1 µM)					
CC(C)C[C@H](NC(=O)[C@@H](N)Cc1ccccc1)C(=O)N1CCC[C@H]1C(=O)N[C@@H](CCCCN)C(=O)N[C@@H](CCCCN)C(=O)N[C@@H](Cc1ccccc1)C(=O)N[C@@H](CCCNC(=N)N)C(=O)N[C@@H](Cc1c[nH]c2ccccc12)C(=O)N[C@@H](Cc1c[nH]c2ccccc12)C(=O)N[C@@H](CCCCN)C(=O)N[C@@H](Cc1ccc(O)cc1)C(=O)N[C@@H](CCCNC(=N)N)C(=O)N[C@@H](CCCCN)C(N)=O [HH972, FLPKKFRWWKYRK] (H-FLPKKFRWWKYRK-NH2; N-terminus assumed)	31 (≈ 16.5 µM)	31 (≈ 16.5 µM)	31 (≈ 16.5 µM)	8 (≈ 4.25 µM)	16 (≈ 8.5 µM)	31 (≈ 16.5 µM)	>125						
CC[C@H](C)[C@H](NC(=O)[C@H](CCCNC(=N)N)NC(=O)[C@H](Cc1c[nH]c2ccccc12)NC(=O)[C@H](CCCNC(=N)N)NC(=O)[C@@H](N)CCCCN)C(=O)N[C@@H](CCCNC(=N)N)C(=O)N[C@H](C(=O)N[C@@H](CCCNC(=N)N)C(=O)N[C@H](C(=O)N[C@H](C(=O)N[C@@H](CCCNC(=N)N)C(=O)N[C@@H](CCCCN)C(N)=O)[C@@H](C)CC)C(C)C)C(C)C [HH16, KRWRIRVRVIRK] (H-KRWRIRVRVIRK-NH2)	3 (≈ 1.8 µM)	6 (≈ 3.6 µM)	3 (≈ 1.8 µM)	0.8 (≈ 0.48 µM)		3 (≈ 1.8 µM)	12 (≈ 7.21 µM)	1.6 (≈ 0.961 µM)					
CC[C@H](C)[C@H](NC(=O)[C@H](CCCNC(=N)N)NC(=O)[C@H](CC(C)C)NC(=O)[C@H](CCCNC(=N)N)NC(=O)[C@@H](N)C(C)C)C(=O)N[C@@H](CCCNC(=N)N)C(=O)N[C@H](C(=O)N[C@@H](CCCNC(=N)N)C(=O)N[C@H](C(=O)N[C@H](C(=O)N[C@@H](CCCNC(=N)N)C(=O)N[C@@H](CCCCN)C(N)=O)[C@@H](C)CC)C(C)C)C(C)C [HH11, VRLRIRVRVIRK] (H-VRLRIRVRVIRK-NH2; N-terminus assumed)	3 (≈ 1.92 µM)	3 (≈ 1.92 µM)	6 (≈ 3.84 µM)	0.8 (≈ 0.512 µM)		6 (≈ 3.84 µM)	12 (≈ 7.68 µM)	1.6 (≈ 1.02 µM)					
CC[C@H](C)[C@H](NC(=O)[C@H](CCCNC(=N)N)NC(=O)[C@H](Cc1ccccc1)NC(=O)[C@H](CCCNC(=N)N)NC(=O)[C@@H](N)CCCCN)C(=O)N[C@@H](CCCNC(=N)N)C(=O)N[C@H](C(=O)N[C@@H](C)C(=O)N[C@H](C(=O)N[C@@H](CCCNC(=N)N)C(=O)N[C@@H](CCCNC(=N)N)C(=O)N[C@@H](C)C(N)=O)C(C)C)C(C)C [HH10, KRFRIRVAVRRA] (H-KRFRIRVAVRRA-NH2; N-terminus assumed)	25 (≈ 16.4 µM)	12 (≈ 7.86 µM)	>50	3.1 (≈ 2.03 µM)		25 (≈ 16.4 µM)	>50	6 (≈ 3.93 µM)					
CC[C@H](C)[C@H](N)C(=O)N[C@@H](CC(C)C)C(=O)N1CCC[C@H]1C(=O)N[C@@H](Cc1c[nH]c2ccccc12)C(=O)N[C@@H](CCCCN)C(=O)N[C@@H](Cc1c[nH]c2ccccc12)C(=O)N1CCC[C@H]1C(=O)N[C@@H](Cc1c[nH]c2ccccc12)C(=O)N[C@@H](Cc1c[nH]c2ccccc12)C(=O)N1CCC[C@H]1C(=O)N[C@@H](Cc1c[nH]c2ccccc12)C(=O)N[C@@H](CCCNC(=N)N)C(=O)N[C@@H](CCCNC(=N)N)C(N)=O [Indolicidin, ILPWKWPWWPWRR-NH2, reference compound]			31 (≈ 16.3 µM)		8 (≈ 4.2 µM)				62 (≈ 32.5 µM)	16 (≈ 8.39 µM)	8 (≈ 4.2 µM)	16 (≈ 8.39 µM)	31 (≈ 16.3 µM)
CC[C@H](C)[C@H](NC(=O)[C@H](CCCNC(=N)N)NC(=O)[C@H](CC(C)C)NC(=O)[C@H](CCCNC(=N)N)NC(=O)[C@@H](N)C(C)C)C(=O)N[C@@H](CCCNC(=N)N)C(=O)N[C@H](C(=O)N[C@@H](C)C(=O)N[C@H](C(=O)N[C@H](C(=O)N[C@@H](CCCNC(=N)N)C(=O)N[C@@H](CCCCN)C(N)=O)[C@@H](C)CC)C(C)C)C(C)C [HH8, VRLRIRVAVIRK] (H-VRLRIRVAVIRK-NH2)	6 (≈ 4.06 µM)	3 (≈ 2.03 µM)	6 (≈ 4.06 µM)	1.6 (≈ 1.08 µM)		6 (≈ 4.06 µM)	12 (≈ 8.12 µM)	3 (≈ 2.03 µM)					
CC[C@H](C)[C@H](NC(=O)[C@H](Cc1c[nH]c2ccccc12)NC(=O)[C@H](CC(C)C)NC(=O)[C@H](CCCNC(=N)N)NC(=O)[C@@H](N)C(C)C)C(=O)N[C@@H](CCCNC(=N)N)C(=O)N[C@H](C(=O)N[C@@H](C)C(=O)N[C@H](C(=O)N[C@H](C(=O)N[C@@H](CCCNC(=N)N)C(=O)N[C@@H](C)C(N)=O)[C@@H](C)CC)C(C)C)C(C)C [HH5, VRLWIRVAVIRA] (H-VRLWIRVAVIRA-NH2)	>50	50 (≈ 34.5 µM)	>50	3 (≈ 2.07 µM)		50 (≈ 34.5 µM)	25 (≈ 17.2 µM)	6 (≈ 4.14 µM)					
CC[C@H](C)[C@H](NC(=O)[C@H](CCCNC(=N)N)NC(=O)[C@H](Cc1ccccc1)NC(=O)[C@H](CCCNC(=N)N)NC(=O)[C@@H](N)CCCCN)C(=O)N[C@@H](CCCNC(=N)N)C(=O)N[C@H](C(=O)N[C@@H](CCCNC(=N)N)C(=O)N[C@H](C(=O)N[C@H](C(=O)N[C@@H](CCCNC(=N)N)C(=O)N[C@@H](CCCCN)C(N)=O)[C@@H](C)CC)C(C)C)C(C)C [HH15, KRFRIRVRVIRK] (H-KRFRIRVRVIRK-NH2)	6 (≈ 3.69 µM)	12 (≈ 7.38 µM)	3 (≈ 1.84 µM)	0.8 (≈ 0.492 µM)		6 (≈ 3.69 µM)	25 (≈ 15.4 µM)	1.6 (≈ 0.984 µM)					
CC[C@H](C)[C@H](N)C(=O)N[C@@H](CC(C)C)C(=O)N[C@@H](CCCCN)C(=O)N[C@@H](Cc1c[nH]c2ccccc12)C(=O)N[C@@H](CCCCN)C(=O)N[C@@H](Cc1c[nH]c2ccccc12)C(=O)N1CCC[C@H]1C(=O)N[C@@H](Cc1c[nH]c2ccccc12)C(=O)N[C@@H](Cc1c[nH]c2ccccc12)C(=O)N[C@@H](CCCCN)C(=O)N[C@@H](Cc1c[nH]c2ccccc12)C(=O)N[C@@H](CCCNC(=N)N)C(=O)N[C@@H](CCCNC(=N)N)C(N)=O [HH970, ILKWKWPWWKWRR] (H-ILKWKWPWWKWRR-NH2; N-terminus assumed)	16 (≈ 8.13 µM)	16 (≈ 8.13 µM)	16 (≈ 8.13 µM)	2 (≈ 1.02 µM)	8 (≈ 4.06 µM)	8 (≈ 4.06 µM)	31 (≈ 15.7 µM)						
